Each block holds one compound with its values, some of them ahead of it.
Key:
[1] = biological target: Ephrin type-A receptor 3 (Homo sapiens, UniProt P29320); assay: EphA3(EPA3LGD5) Takeda global kinase panel
[2] = biological target: Delta-type opioid receptor (Homo sapiens) (UniProt P41143); settings: Compound concentration 10.0 uM
[3] = biological target: Mitogen-activated protein kinase 10 (Homo sapiens, UniProt P53779); assay: JNK3(MP10LGF2) Takeda global kinase panel
[4] = biological target: RAC-gamma serine/threonine-protein kinase (Homo sapiens, UniProt Q9Y243); assay: Akt3 [PKBgamma(AKT3LGY1)] Takeda global kinase panel
[5] = biological target: Tyrosine-protein kinase Fer (Homo sapiens, UniProt P16591); assay: Fer(FER1LGY1) Takeda global kinase panel
[6] = biological target: Ribosomal protein S6 kinase alpha-2 (Homo sapiens, UniProt Q15349); assay: RSK3(R6A1CGE1) Takeda global kinase panel
[7] = biological target: D(3) dopamine receptor (Homo sapiens) (UniProt P35462); settings: Compound concentration 10.0 uM
[8] = biological target: Interleukin-1 receptor-associated kinase 4 (Homo sapiens, UniProt Q9NWZ3); assay: IRAK4(IRK4LGF1) Takeda global kinase panel
[9] = biological target: Death-associated protein kinase 2 (Homo sapiens, UniProt Q9UIK4); assay: DAPK2(DAP2LGF1) Takeda global kinase panel
[10] = biological target: G protein-coupled receptor kinase 5 (Homo sapiens, UniProt P34947); assay: GRK5(GRK5LGP1) Takeda global kinase panel
[11] = biological target: Kappa-type opioid receptor (Homo sapiens) (UniProt P41145); settings: Compound concentration 10.0 uM
[12] = biological target: Vascular endothelial growth factor receptor 2 (Homo sapiens, UniProt P35968); assay: KDR(KDR1CGY1) Takeda global kinase panel
[13] = biological target: Cannabinoid receptor 1 (Homo sapiens) (UniProt P21554); assay: Inhibition of Cannabinoid CB1 at compound concentration of 10.0 uM in the Eurofins-Panlabs radioligand binding assay (Eurofins_assay_217050); design: ligand concentration 2 nM; settings: Compound concentration 10.0 uM
[14] = biological target: Calcium/calmodulin-dependent protein kinase type IV (Homo sapiens, UniProt Q16566); assay: CaMK4(CAM4LGY1) Takeda global kinase panel
[15] = biological target: Glucocorticoid receptor (Homo sapiens) (UniProt P04150); settings: Compound concentration 10.0 uM
[16] = biological target: Protein kinase C eta type (Homo sapiens, UniProt P24723); assay: PKCeta(PRKHLGRA) Takeda global kinase panel
[17] = biological target: Bromodomain testis-specific protein (Homo sapiens, UniProt Q58F21); assay: BRDT(BRDTLGRC) Takeda global kinase panel
[18] = biological target: Tyrosine-protein kinase Lck (Homo sapiens, UniProt P06239); assay: Lck(LCK1LGF1) Takeda global kinase panel
[19] = biological target: Dual specificity tyrosine-phosphorylation-regulated kinase 4 (Homo sapiens, UniProt Q9NR20); assay: DYRK4(DYR4LHY1) Takeda global kinase panel
[20] = biological target: Proto-oncogene tyrosine-protein kinase ROS (Homo sapiens, UniProt P08922); assay: Ros(ROS1PHY1) Takeda global kinase panel
[21] = biological target: Tyrosine-protein kinase ABL1 (Homo sapiens, UniProt P00519); assay: Abl(ABL1IHY1) Takeda global kinase panel
[22] = biological target: Ribosomal protein S6 kinase beta-1 (Homo sapiens, UniProt P23443); assay: p70S6K(R6B1CGF1) Takeda global kinase panel
[23] = biological target: Serine/threonine-protein kinase TNNI3K (Homo sapiens, UniProt Q59H18); assay: HH498(TNNILGY1) Takeda global kinase panel
[24] = biological target: Myotonin-protein kinase (Homo sapiens, UniProt Q09013); assay: DMPK(DMPKLGF1) Takeda global kinase panel
[25] = biological target: Serine/threonine-protein kinase Nek2 (Homo sapiens, UniProt P51955); assay: Nek2(NEK2LHFA) Takeda global kinase panel
[26] = biological target: Serine/threonine-protein kinase ICK (Homo sapiens, UniProt Q9UPZ9); assay: ICK(ICK1LGP1) Takeda global kinase panel
[27] = biological target: Leukocyte tyrosine kinase receptor (Homo sapiens, UniProt P29376); assay: LTK(LTK1LGF1) Takeda global kinase panel
[28] = biological target: Tyrosine-protein kinase ITK/TSK (Homo sapiens, UniProt Q08881); assay: ITK(ITK1CGF1) Takeda global kinase panel
[29] = biological target: Mitogen-activated protein kinase kinase kinase kinase 1 (Homo sapiens, UniProt Q92918); assay: HPK1(M4K1LGY1) Takeda global kinase panel
[30] = biological target: Bone morphogenetic protein receptor type-1B (Homo sapiens, UniProt O00238); assay: BMPR1B(BM1BLGF1) Takeda global kinase panel
[31] = biological target: Myosin-IIIb (Homo sapiens, UniProt Q8WXR4); assay: MYO3B(MY3BLGA1) Takeda global kinase panel
[32] = biological target: Casein kinase I isoform epsilon (Homo sapiens, UniProt P49674); assay: CK1epsilon(CS1ELGI5) Takeda global kinase panel
[33] = biological target: Protein kinase C theta type (Homo sapiens, UniProt Q04759); assay: PKCtheta(PRKQLGM5) Takeda global kinase panel
[34] = biological target: Receptor-type tyrosine-protein kinase FLT3 (Homo sapiens, UniProt P36888); assay: FLT3(FLT3MGE1) Takeda global kinase panel
[35] = biological target: RAC-beta serine/threonine-protein kinase (Homo sapiens, UniProt P31751); assay: Akt2 [PKBbeta(AKT2CGY1)] Takeda global kinase panel
[36] = biological target: Endothelin receptor type B (Homo sapiens) (UniProt P24530); settings: Compound concentration 10.0 uM
[37] = biological target: Tyrosine-protein kinase receptor UFO (Homo sapiens, UniProt P30530); assay: Axl(AXL1LGY1) Takeda global kinase panel
[38] = biological target: Casein kinase I isoform gamma-3 (Homo sapiens, UniProt Q9Y6M4); assay: CK1gamma3(C1G3LGI5) Takeda global kinase panel
[39] = biological target: Serine/threonine-protein kinase greatwall (Homo sapiens, UniProt Q96GX5); assay: MASTL(MASLLGE1) Takeda global kinase panel
[40] = biological target: Serine/threonine-protein kinase Sgk2 (Homo sapiens, UniProt Q9HBY8); assay: SGK2(SGK2LGE5) Takeda global kinase panel
[41] = biological target: Serine/threonine-protein kinase TBK1 (Homo sapiens, UniProt Q9UHD2); assay: TBK1(TBK1CGF1) Takeda global kinase panel
[42] = biological target: Serine/threonine-protein kinase ULK1 (Homo sapiens, UniProt O75385); assay: ULK1(ULK1LGF1) Takeda global kinase panel
[43] = biological target: Casein kinase I isoform alpha (Homo sapiens, UniProt P48729); assay: CK1alpha(C1A1PHY1) Takeda global kinase panel
[44] = biological target: Cyclin-dependent kinase 2 (Homo sapiens, UniProt P24941); assay: CDK2(CDK2CGS1) Takeda global kinase panel
[45] = biological target: TGF-beta receptor type-1 (Homo sapiens, UniProt P36897); assay: TGFbetaR1(TGF1LGF1) Takeda global kinase panel
[46] = biological target: D(1B) dopamine receptor (Homo sapiens) (UniProt P21918); assay: Dopamine D5 Eurofins-Panlabs radioligand binding assay; settings: Compound concentration 10.0 uM
Sequence of D(1B) dopamine receptor (Homo sapiens) (P21918 whole entry): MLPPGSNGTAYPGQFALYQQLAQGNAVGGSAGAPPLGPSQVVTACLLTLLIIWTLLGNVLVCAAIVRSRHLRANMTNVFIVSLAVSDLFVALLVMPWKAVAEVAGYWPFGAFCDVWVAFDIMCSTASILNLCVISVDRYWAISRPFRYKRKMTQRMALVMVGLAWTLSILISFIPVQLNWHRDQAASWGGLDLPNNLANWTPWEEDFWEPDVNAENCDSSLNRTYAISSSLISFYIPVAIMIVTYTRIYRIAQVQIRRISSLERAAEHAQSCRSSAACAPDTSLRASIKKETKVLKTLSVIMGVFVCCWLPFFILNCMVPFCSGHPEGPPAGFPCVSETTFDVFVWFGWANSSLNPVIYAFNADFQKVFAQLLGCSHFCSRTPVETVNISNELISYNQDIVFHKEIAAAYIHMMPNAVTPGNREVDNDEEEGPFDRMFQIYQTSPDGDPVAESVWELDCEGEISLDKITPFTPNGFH

Sequence of Casein kinase I isoform alpha (P48729 whole entry, canonical isoform): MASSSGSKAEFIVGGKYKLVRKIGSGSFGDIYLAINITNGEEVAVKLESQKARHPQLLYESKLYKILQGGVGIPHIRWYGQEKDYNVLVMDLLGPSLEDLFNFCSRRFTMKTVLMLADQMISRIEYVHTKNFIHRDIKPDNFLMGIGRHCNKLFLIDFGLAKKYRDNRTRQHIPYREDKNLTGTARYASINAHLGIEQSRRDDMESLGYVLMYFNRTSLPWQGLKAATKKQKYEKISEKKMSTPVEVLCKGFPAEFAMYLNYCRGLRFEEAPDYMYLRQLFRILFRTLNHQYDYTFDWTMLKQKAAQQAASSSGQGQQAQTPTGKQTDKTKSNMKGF
Sequence of Myotonin-protein kinase (Q09013 whole entry): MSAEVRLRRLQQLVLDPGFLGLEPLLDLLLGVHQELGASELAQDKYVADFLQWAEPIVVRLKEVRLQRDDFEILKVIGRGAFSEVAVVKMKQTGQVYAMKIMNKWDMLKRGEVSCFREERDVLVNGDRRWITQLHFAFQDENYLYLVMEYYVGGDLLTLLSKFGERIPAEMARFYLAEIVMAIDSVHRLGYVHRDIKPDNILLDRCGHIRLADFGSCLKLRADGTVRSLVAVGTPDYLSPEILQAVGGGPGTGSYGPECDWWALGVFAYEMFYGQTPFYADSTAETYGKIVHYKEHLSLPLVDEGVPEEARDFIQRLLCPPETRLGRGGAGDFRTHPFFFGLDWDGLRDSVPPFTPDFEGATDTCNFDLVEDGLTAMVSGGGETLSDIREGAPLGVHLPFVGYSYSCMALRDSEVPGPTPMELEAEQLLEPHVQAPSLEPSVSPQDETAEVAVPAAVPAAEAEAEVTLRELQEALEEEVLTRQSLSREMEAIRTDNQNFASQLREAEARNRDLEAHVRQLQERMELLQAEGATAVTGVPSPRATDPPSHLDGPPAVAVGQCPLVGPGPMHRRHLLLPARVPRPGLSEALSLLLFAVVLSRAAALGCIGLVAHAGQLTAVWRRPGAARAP
Sequence of Endothelin receptor type B (Homo sapiens) (P24530 whole entry): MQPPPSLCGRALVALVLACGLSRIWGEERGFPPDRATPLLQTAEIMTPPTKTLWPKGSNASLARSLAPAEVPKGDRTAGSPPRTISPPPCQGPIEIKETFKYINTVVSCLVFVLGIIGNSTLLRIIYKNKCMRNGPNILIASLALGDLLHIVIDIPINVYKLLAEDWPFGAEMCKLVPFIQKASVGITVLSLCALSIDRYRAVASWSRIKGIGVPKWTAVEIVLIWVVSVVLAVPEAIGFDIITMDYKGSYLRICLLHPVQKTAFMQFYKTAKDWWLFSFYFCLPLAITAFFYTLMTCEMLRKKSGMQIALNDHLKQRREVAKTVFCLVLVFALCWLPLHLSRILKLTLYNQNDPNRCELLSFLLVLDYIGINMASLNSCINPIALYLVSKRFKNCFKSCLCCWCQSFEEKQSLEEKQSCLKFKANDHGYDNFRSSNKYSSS
Sequence of Bone morphogenetic protein receptor type-1B (O00238 whole entry): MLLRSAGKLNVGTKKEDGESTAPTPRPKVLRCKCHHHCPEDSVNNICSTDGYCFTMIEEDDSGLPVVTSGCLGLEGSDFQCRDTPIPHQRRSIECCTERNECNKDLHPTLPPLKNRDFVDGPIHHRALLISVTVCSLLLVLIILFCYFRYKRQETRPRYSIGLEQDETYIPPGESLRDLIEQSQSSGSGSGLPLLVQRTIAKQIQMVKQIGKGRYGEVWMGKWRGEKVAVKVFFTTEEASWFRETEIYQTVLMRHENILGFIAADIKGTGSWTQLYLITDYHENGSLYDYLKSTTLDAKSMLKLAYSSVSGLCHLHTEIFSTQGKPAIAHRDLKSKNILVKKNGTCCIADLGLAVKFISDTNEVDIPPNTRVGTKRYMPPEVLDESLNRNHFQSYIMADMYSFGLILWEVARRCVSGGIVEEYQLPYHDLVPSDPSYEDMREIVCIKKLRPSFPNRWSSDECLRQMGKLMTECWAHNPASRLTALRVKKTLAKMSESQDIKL
Sequence of Myosin-IIIb (Q8WXR4 whole entry, canonical isoform): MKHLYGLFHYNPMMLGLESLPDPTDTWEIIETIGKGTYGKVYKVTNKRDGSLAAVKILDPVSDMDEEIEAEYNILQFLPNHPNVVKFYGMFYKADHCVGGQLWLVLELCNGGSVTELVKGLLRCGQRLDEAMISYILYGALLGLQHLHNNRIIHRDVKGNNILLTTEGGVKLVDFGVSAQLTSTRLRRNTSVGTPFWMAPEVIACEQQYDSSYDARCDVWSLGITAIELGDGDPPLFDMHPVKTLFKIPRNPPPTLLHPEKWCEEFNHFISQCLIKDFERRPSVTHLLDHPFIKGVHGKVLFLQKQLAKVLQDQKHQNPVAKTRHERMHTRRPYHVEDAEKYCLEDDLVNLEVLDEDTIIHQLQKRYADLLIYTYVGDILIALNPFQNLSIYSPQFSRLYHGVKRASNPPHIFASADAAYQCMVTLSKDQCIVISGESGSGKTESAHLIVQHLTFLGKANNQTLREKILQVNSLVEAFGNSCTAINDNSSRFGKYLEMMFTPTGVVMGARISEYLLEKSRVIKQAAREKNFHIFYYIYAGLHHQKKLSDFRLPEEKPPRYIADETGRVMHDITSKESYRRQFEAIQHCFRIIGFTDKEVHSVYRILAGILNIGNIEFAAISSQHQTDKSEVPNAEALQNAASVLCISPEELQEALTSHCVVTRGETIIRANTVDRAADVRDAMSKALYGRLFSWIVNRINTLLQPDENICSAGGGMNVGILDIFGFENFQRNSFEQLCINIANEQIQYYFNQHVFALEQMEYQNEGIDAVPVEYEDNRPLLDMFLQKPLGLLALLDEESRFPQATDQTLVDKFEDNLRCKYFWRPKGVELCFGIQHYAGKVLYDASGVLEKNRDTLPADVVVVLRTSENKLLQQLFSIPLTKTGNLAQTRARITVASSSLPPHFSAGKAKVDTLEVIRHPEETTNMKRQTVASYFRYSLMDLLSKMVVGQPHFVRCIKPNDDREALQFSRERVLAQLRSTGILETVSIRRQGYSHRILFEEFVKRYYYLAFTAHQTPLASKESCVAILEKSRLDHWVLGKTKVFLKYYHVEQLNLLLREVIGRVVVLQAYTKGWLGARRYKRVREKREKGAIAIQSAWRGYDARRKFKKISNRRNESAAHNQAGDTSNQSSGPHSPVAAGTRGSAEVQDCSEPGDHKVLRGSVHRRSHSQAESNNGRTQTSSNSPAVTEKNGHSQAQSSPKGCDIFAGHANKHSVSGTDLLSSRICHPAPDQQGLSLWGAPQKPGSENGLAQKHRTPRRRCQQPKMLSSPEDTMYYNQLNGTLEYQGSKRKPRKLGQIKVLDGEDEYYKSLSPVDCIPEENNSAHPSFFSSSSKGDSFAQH
Sequence of Tyrosine-protein kinase Lck (P06239 whole entry): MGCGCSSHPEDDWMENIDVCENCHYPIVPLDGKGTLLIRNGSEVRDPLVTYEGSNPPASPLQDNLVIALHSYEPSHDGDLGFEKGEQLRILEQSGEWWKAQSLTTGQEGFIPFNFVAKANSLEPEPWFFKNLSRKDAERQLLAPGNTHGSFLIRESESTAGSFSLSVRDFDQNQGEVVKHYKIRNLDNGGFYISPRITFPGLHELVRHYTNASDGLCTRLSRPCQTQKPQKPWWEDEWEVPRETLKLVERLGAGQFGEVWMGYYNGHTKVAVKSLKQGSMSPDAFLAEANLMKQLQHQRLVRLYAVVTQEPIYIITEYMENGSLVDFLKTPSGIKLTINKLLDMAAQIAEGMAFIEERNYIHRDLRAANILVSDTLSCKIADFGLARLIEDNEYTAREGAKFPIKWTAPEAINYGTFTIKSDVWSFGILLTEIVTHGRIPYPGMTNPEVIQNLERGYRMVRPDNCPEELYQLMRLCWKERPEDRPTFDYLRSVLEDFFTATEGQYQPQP
Sequence of Serine/threonine-protein kinase TBK1 (Q9UHD2 whole entry): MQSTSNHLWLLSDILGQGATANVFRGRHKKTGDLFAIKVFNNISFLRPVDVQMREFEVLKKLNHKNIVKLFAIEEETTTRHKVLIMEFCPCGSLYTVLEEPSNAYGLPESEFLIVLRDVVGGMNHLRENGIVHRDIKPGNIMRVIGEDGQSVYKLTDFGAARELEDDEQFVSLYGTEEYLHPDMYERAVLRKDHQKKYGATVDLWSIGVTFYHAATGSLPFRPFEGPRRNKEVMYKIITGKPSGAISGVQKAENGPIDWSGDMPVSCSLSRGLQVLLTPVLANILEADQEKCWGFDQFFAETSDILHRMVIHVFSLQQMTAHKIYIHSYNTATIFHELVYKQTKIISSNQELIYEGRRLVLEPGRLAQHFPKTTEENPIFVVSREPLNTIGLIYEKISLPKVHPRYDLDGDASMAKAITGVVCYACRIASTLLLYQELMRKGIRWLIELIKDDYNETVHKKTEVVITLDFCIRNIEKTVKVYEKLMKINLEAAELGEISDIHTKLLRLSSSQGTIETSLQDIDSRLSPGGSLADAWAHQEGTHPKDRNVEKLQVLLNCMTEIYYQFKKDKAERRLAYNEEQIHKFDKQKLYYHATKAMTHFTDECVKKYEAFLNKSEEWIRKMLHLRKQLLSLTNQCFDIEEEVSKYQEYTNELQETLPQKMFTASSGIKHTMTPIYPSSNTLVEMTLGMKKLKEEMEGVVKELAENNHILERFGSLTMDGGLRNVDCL

SMILES: CN1C(=O)[C@@H](N2CCc3cn(Cc4ccccc4)nc3C2=O)COc2ccccc21 [TP-030-1]
- IC50 [1]: 1 µM
- inhibition [2]: 3%
- IC50 [3]: 1 µM
- IC50 [4]: 1 µM
- IC50 [5]: 1 µM
- IC50 [6]: 1 µM
- inhibition [7]: 8%
- IC50 [8]: 1 µM
- IC50 [9]: 1 µM
- IC50 [10]: 1 µM
- inhibition [11]: 3%
- IC50 [12]: 1 µM
- inhibition [13]: 5%
- IC50 [14]: 1 µM
- inhibition [15]: 5%
- IC50 [16]: 1 µM
- IC50 [17]: 1 µM
- IC50 [18]: 1 µM
- IC50 [19]: 1 µM
- IC50 [20]: 1 µM
- IC50 [21]: 1 µM
- IC50 [22]: 1 µM
- IC50 [23]: 1 µM
- IC50 [24]: 1 µM
- IC50 [25]: 1 µM
- IC50 [26]: 1 µM
- IC50 [27]: 1 µM
- IC50 [28]: 1 µM
- IC50 [29]: 1 µM
- IC50 [30]: 1 µM
- IC50 [31]: 1 µM
- IC50 [32]: 1 µM
- IC50 [33]: 1 µM
- IC50 [34]: 1 µM
- IC50 [35]: 1 µM
- inhibition [36]: 0%
- IC50 [37]: 1 µM
- IC50 [38]: 1 µM
- IC50 [39]: 1 µM
- IC50 [40]: 1 µM
- IC50 [41]: 1 µM
- IC50 [42]: 1 µM
- IC50 [43]: 1 µM
- IC50 [44]: 1 µM
- IC50 [45]: 1 µM
- inhibition [46]: 3%

- IC50 [1]: 1 µM
- inhibition [2]: -8%
- IC50 [3]: 1 µM
- IC50 [4]: 1 µM
- IC50 [5]: 1 µM
- IC50 [6]: 1 µM
- inhibition [7]: 4%
- IC50 [8]: 1 µM
- IC50 [10]: 1 µM
- inhibition [11]: 3%
- IC50 [12]: 1 µM
- inhibition [13]: -5%
- IC50 [14]: 1 µM
- inhibition [15]: 3%
- IC50 [16]: 1 µM
- IC50 [17]: 1 µM
- IC50 [18]: 1 µM
- IC50 [19]: 1 µM
- IC50 [20]: 1 µM
- IC50 [21]: 1 µM
- IC50 [22]: 1 µM
- IC50 [23]: 1 µM
- IC50 [24]: 1 µM
- IC50 [25]: 1 µM
- IC50 [26]: 1 µM
- IC50 [27]: 1 µM
- IC50 [28]: 1 µM
- IC50 [29]: 1 µM
- IC50 [30]: 1 µM
- IC50 [31]: 1 µM
- IC50 [32]: 1 µM
- IC50 [33]: 1 µM
- IC50 [34]: 1 µM
- IC50 [35]: 1 µM
- inhibition [36]: -3%
- IC50 [37]: 1 µM
- IC50 [38]: 1 µM
- IC50 [39]: 1 µM
- IC50 [40]: 1 µM
- IC50 [41]: 1 µM
- IC50 [42]: 1 µM
- IC50 [43]: 1 µM
- IC50 [44]: 1 µM
- IC50 [45]: 1 µM
- inhibition [46]: 3%
SMILES: CN1C(=O)[C@@H](N2CCc3cn(CC4CCS(=O)(=O)CC4)nc3C2=O)COc2ccccc21 [TP-030n]
- IC50 [9]: 1 µM
